Measured values as given in patent US7402580B2, “Fused pyridazine derivative compounds and drugs containing these compounds as the active ingredient” (Ono Pharmaceutical Co., Ltd., priority 2002, dated 2008).
pIC50: −log10 of the molar value.

These molecules were tested against T1, PARP (TREVIGEN) (Homo sapiens, UniProt P09874) (assay: Enzyme assay in vitro (PARP inhibitory activity, 3H-NAD incorporation)). Conditions: 50% inhibitory concentration, control (distilled water) = 100%; reaction 10 minutes at room temperature.
T1 construct: purchased TREVIGEN
T1 sequence (P09874 whole entry): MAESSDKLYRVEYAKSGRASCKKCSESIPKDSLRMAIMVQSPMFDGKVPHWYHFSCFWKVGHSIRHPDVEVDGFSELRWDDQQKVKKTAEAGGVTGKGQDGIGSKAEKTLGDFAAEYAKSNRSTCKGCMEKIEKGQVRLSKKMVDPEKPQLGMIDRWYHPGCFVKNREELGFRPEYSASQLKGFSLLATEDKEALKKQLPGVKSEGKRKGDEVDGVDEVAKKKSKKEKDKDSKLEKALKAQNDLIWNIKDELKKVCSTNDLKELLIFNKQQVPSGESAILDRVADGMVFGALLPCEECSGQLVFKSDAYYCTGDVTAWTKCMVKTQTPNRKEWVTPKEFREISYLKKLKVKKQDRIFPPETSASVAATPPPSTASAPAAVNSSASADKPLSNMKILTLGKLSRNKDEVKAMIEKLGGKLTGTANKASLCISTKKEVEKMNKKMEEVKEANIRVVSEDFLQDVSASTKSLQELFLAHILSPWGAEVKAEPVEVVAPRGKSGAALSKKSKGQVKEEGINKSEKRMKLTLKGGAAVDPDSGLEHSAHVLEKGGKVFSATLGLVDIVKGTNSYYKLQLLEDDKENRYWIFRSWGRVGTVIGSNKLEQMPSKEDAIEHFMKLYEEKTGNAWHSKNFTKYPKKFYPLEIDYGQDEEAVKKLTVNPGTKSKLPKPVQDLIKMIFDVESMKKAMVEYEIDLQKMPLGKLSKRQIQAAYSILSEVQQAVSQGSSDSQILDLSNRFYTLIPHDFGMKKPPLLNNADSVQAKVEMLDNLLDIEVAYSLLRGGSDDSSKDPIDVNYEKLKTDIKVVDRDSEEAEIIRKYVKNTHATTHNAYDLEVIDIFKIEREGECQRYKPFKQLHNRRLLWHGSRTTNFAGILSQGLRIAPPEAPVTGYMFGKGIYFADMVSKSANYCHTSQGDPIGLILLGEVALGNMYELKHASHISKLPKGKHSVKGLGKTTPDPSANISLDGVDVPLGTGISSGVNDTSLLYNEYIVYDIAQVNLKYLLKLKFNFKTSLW
Assay type: biochemical
Procedure: The below procedure was carried out with 96 well plate at room temperature. In a final volume of […], the reaction mixture contained each 10 μL of 500 mM Tris/HCl (pH 8.0, WAKO), 100 mM MgCl2, 50 mM dithiothreitol (sigma), 1 mg/mL activated DNA and 1 mM NAD (containing ^3H-NAD). The 10 μL of test compound was added to the reaction mixture and the reaction was started by addition of 10 μL of 0.1 U/μL PARP (TREVIGEN). The reaction was terminated at 10 minutes by addition of 100 μL of 20% trichloroacetic acid. Poly(ADP-ribose), which is the reaction product, was collected on a glass fiber filter (GF/C, PACKARD). The radioactivity was measured by topcount (PACKARD). Inhibitory activity of the compound was represented by 50% inhibitory concentration calculated as 100% of control (distilled water).

Point of comparison: `NCCNC(=O)Cc1n[nH]c(=O)c2c1CCCC2` [30(4), 4-(N-(2-aminoethyl)carbamoylmethyl)-5,6,7,8-tetrahydrophthalazin-1(2H)-one], pIC50 6.54. Against it:
- Nc1cc(N)cc(C2=NNC(=O)C3CSCCN23)c1 (stereo not drawn) [6(9), 4-(3,5-diaminophenyl)-6,7,9,9a-tetrahydro[1,4]thiazino[4,3-d][1,2,4]triazin-1(2H)-one] — 0.33 log units lower, 6.21
- Nc1cccc(-c2n[nH]c(=O)c3c2NCCC3)c1 [11(4), 8-(3-aminophenyl)-2,3,4,6-tetrahydropyrido[2,3-d]pyridazin-5(1H)-one] — 0.46 log units higher, 7.00
